Data on 45 compounds can be found in patent US20250042889A1, “3CLPRO PROTEASE INHIBITOR” (SHANGHAI QILU PHARMACEUTICAL RESEARCH AND DEVELOPMENT …, priority 2021, published 2025).

The first assay addresses SARS-COV-2 3CLpro/Mpro protease (Severe acute respiratory syndrome coronavirus 2 (2019-nCoV) (SARS-CoV-2), UniProt P0DTD1). Briefly: Inhibitory effect on SARS-COV-2 3CLpro/Mpro protease by fluorescence resonance energy transfer. The assay is classed as biochemical. The note with it: IC50 (nM), Inhibition on SARS-CoV-2 3CLpro/Mpro protease, activity intervals A-D.
In turn, `CNc1cncc(C(=O)N2CCC[C@@H](Nc3c(C(=O)N4CC5CCC(C4)N5)cc(Br)cc3[N+](=O)[O-])C2)c1` [Example 276] had an IC50 of 10 to 50 nM.

Staying with this assay, now noted: activity intervals A-D, read-out: IC50 (nM), Inhibition on SARS-CoV-2 3CLpro/Mpro protease.
On to `C[C@@H]1CN(C(=O)c2cc(Br)cc(C(F)(F)F)c2N[C@@H]2CCOC[C@@H]2NC(=O)c2cncc3ccccc23)C[C@H](C)O1` [Example 210], for which the IC50 lay in the range of 10 to 50 nM. On to `O=C(c1cncc(OC(F)F)c1)N1CCC[C@@H](Nc2c(C(=O)N3CCCCC3)cc(Br)cc2[N+](=O)[O-])C1` [Example 61], for which the IC50 was in the range of 50 to 100 nM. Turning to `CNc1cncc(C(=O)N2C[C@H](Nc3c(C(=O)N4CCCCC4)cc(Br)cc3[N+](=O)[O-])C(C)(O)C2)c1` (stereo partly drawn) [Example 245], the IC50 lay in the range of 50 to 100 nM. Take `Cc1cc(C(=O)N2CCC[C@@H](Nc3c(C(=O)N4CCOCC4)cc(Br)cc3[N+](=O)[O-])C2)cc(=O)[nH]1` [Example 26, (R)-4-(3-((4-bromo-2-(morpholin-4-carbonyl)-6-nitrophenyl)amino)piperidin-1-carbonyl)-6-methylpyridin-2 (1H)-one]: the IC50 is 10 to 50 nM. Consider `C[C@@H]1CN(C(=O)c2cc(Br)cc([N+](=O)[O-])c2N[C@@H]2CCCN(C(=O)C3CCNC(=O)C3)C2)C[C@H](C)O1` (stereo partly drawn) [Example 18, 4-((R)-3-((4-bromo-2-((2R,6S)-2,6-dimethylmorpholin-4-carbonyl)-6-nitrophenyl)amino)piperidin-1-carbonyl)piperidin-2-one], for which the IC50 was in the range of 100 to 200 nM.

As to `CNc1cncc(C(=O)N2C[C@H](Nc3c(C(=O)N4C[C@@H](C)O[C@@H](C)C4)cc(Br)cc3[N+](=O)[O-])C[C@H]2C(=O)N[C@H]2CCN(CCOC)C2)c1` [Example 404], the IC50 is 100 to 200 nM. The same measure, in the same setting: then `C[C@@H]1CN(C(=O)c2cc(Br)cc([N+](=O)[O-])c2N[C@H]2CN(C(=O)c3cncc(Br)c3)CC2(F)F)C[C@H](C)O1` [Example 203], with 10 to 50 nM; and `CNc1cncc(C(=O)N2CCC[C@@H](Nc3c(C(=O)N4CCC[C@@H](C)C4)cc(Br)cc3[N+](=O)[O-])C2)c1` [Example 253], with 50 to 100 nM.

Consider `CNc1cncc(C(=O)N2CCC[C@@H](Nc3c(C(=O)N4Cc5c[nH]nc5C4)cc(Br)cc3[N+](=O)[O-])C2)c1` [Example 278], for which the IC50 lay within 10 to 50 nM.

On to `O=C(c1cncc(Br)c1)N1CCC[C@@H](Nc2c(C(=O)N3CCC(F)(F)CC3)cc(Br)cc2C(F)(F)F)C1` [Example 49], for which the IC50 fell in the range of 10 to 50 nM. On to `CNc1cncc(C(=O)N2C[C@H](Nc3c(C(=O)N4C[C@@H](C)O[C@@H](C)C4)cc(Br)cc3[N+](=O)[O-])[C@@H](OCc3ccc(F)cn3)C2)c1` [Example 459], for which the IC50 fell in the range of 10 to 50 nM. Same read-out and setting: then `CNc1cncc(C(=O)N2C[C@H](Nc3c(C(=O)N4C[C@@H](C)O[C@@H](C)C4)cc(Br)cc3[N+](=O)[O-])[C@@H](OCc3ccc(C(F)(F)F)nc3)C2)c1` [Example 457, (5-Bromo-2-((3S,4S)-1-(5-(methylamino)nicotinoyl)-4-((6-(trifluoromethyl)pyridin-3-yl)methoxy)pyrrolidin-3-amino)-3-nitrophenyl)((2S,6R)-2,6-dimethylmorpholinyl)methanone], with 100 to 200 nM; and `C[C@@H]1CN(C(=O)c2cc(Br)cc([N+](=O)[O-])c2N[C@@H]2CCN(C(=O)c3cncc4cc(Cl)ccc34)C2)C[C@H](C)N1` [Example 125], with below 10 nM; and `O=C(N[C@H]1CCCC[C@H]1Nc1c(C(=O)N2CCNCC2)cc(Br)cc1C(F)(F)F)c1cncc2cc(Cl)ccc12` [Example 143], with 10 to 50 nM. On the same count and under the same terms, then `CNc1cncc(C(=O)N2C[C@H](Nc3c(C(=O)N4CCCCC4)cc(Br)cc3[N+](=O)[O-])[C@@H](OC)C2)c1` [Example 306], with 10 to 50 nM; and `C#C[C@@H]1CN(C(=O)c2cc(Br)cc([N+](=O)[O-])c2N[C@@H]2CCCN(C(=O)c3cncc(NC)c3)C2)CCO1` [Example 346], with 10 to 50 nM. Consider `CNc1cncc(C(=O)N2CC(Nc3c(C(=O)N4C[C@@H](C)N(CCOC)[C@@H](C)C4)cc(Br)cc3[N+](=O)[O-])C(F)(F)C2)c1` (stereo partly drawn) [Example 178], for which the IC50 is 50 to 100 nM. Same read-out and setting: then `C[C@@H]1CN(C(=O)c2cc(Br)cc([N+](=O)[O-])c2N[C@@H]2CCCN(C(=O)[C@H]3CNCC(F)(F)C3)C2)CCO1` [Example 329], with 10 to 50 nM. For `CNc1cncc(C(=O)N2C[C@H](Nc3c(C(=O)N4C[C@@H](C)O[C@@H](C)C4)cc(Br)cc3[N+](=O)[O-])C[C@H]2C(=O)NCc2ccnc(C(F)F)c2)c1` [Example 431], the IC50 lay in the range of 50 to 100 nM. `CNc1cncc(C(=O)N2CCC[C@@H](Nc3c(C(=O)N4CCc5oc(C)nc5C4)cc(Br)cc3[N+](=O)[O-])C2)c1` [Example 316]: the IC50 was in the range of 10 to 50 nM.

As to `O=C(c1cc(Br)cc([N+](=O)[O-])c1N[C@@H]1CCCN(C(=O)[C@H]2CNCC(F)(F)C2)C1)N1CCO[C@H](C(F)(F)F)C1` [Example 330], the IC50 fell in the range of 10 to 50 nM. Turning to `Cc1cc(C(=O)N2C[C@H](Nc3c(C(=O)N4CCC5(CC4)CC5)cc(Br)cc3[N+](=O)[O-])C3(CC3)C2)cc(=O)[nH]1` [Example 94], the IC50 was 10 to 50 nM. On the same count and under the same terms, the same measure for `C[C@@H]1CN(C(=O)c2cc(Br)cc([N+](=O)[O-])c2N[C@@H]2CCCN(C(=O)c3cc(=O)[nH]c4ccccc34)C2)C[C@H](C)N1` [Example 139]: 10 to 50 nM; for `COCCN1CCN(C(=O)c2cc(Br)cc([N+](=O)[O-])c2N[C@H]2CN(C(=O)c3cncc(I)c3)CC2(F)F)CC1` [Example 208]: 10 to 50 nM. Still for that read-out and setting: then `C[C@@H]1CN(C(=O)c2cc(Br)cc([N+](=O)[O-])c2N[C@@H]2CCCC[C@@H]2NC(=O)c2cncc3cc(Cl)ccc23)C[C@H](C)N1` [Example 131], with 10 to 50 nM; and `O=C(N[C@H]1COCC[C@H]1Nc1c(C(=O)N2CCCCC2)cc(Br)cc1[N+](=O)[O-])c1cncc2cc(Cl)ccc12` [Example 193], with 10 to 50 nM; and `CO[C@H]1CN(C(=O)c2cncc3[nH]nc(C)c23)C[C@@H]1Nc1c(C(=O)N2C[C@@H](C)O[C@@H](C)C2)cc(Br)cc1[N+](=O)[O-]` [Example 439, (5-Bromo-2-(((3S,4S)-4-methoxy-1-(3-methyl-1H-pyrazolo[3,4-c]pyridin-4-carbonyl)pyrrolidin-3-yl)amino)-3-nitrophenyl)((2S,6R)-2,6-dimethylmorpholinyl)methanone], with 10 to 50 nM. In the case of `CNc1cncc(C(=O)N2C[C@H](Nc3c(C(=O)N4C[C@@H](C)O[C@@H](C)C4)cc(Br)cc3[N+](=O)[O-])C[C@H]2C(=O)Nc2ccccc2)c1` [Example 387], the IC50 lay in the range of 10 to 50 nM. On the same count and under the same terms, the same measure for `CNc1cncc(C(=O)N2C[C@H](Nc3c(C(=O)N4C[C@@H](C)O[C@@H](C)C4)cc(Br)cc3[N+](=O)[O-])C[C@H]2C(=O)NC2CNC(=O)C2)c1` (stereo partly drawn) [Example 393]: 50 to 100 nM; for `CNc1cncc(C(=O)N2CCC[C@@H](Nc3c(C(=O)N4CCC5(CCO5)CC4)cc(Br)cc3[N+](=O)[O-])C2)c1` [Example 285]: 10 to 50 nM; for `CNc1cncc(C(=O)N2CCC[C@@H](Nc3c(C(=O)N4CCC(C)(OC)CC4)cc(Br)cc3[N+](=O)[O-])C2)c1` [Example 275]: 10 to 50 nM.

Turning to `COCCN1CCN(C(=O)c2cc(Br)cc([N+](=O)[O-])c2N[C@H]2CN(C(=O)c3cncc(Br)c3)CC2(C)O)CC1` (stereo partly drawn) [Example 287], the IC50 lay in the range of 10 to 50 nM. In the case of `Cc1cc(C(=O)N2C[C@H](Nc3c(C(=O)N4CCC(C)(C)CC4)cc(Br)cc3[N+](=O)[O-])C3(CC3)C2)cc(=O)[nH]1` [Example 93], the IC50 lay in the range of 10 to 50 nM. The same measure, in the same setting: the same measure for `CNc1cncc(C(=O)N2CCC[C@@H](Nc3c(C(=O)N4C[C@H](C)C[C@H](C)C4)cc(Br)cc3[N+](=O)[O-])C2)c1` [Example 251]: 50 to 100 nM; for `Cc1cc(C(=O)N2C[C@H](Nc3c(C(=O)NCc4ccc(Cl)cc4)cc(Br)cc3[N+](=O)[O-])C3(CC3)C2)cc(=O)[nH]1` [Example 297]: 10 to 50 nM. As for `CNc1cncc(C(=O)N2CCC[C@@H](Nc3c(C(=O)N4CCC5(CC4)CCC(C)(C)O5)cc(Br)cc3[N+](=O)[O-])C2)c1` [Example 293], the IC50 fell in the range of 10 to 50 nM.

`[2H]C1([2H])CC[C@@H](Nc2c(C(=O)N3C[C@@H](C)O[C@@H](C)C3)cc(Br)cc2[N+](=O)[O-])C([2H])([2H])N1C(=O)c1cncc(NC)c1` [Example 354]: the IC50 was in the range of 10 to 50 nM. The same measure, in the same setting: the same measure for `CNc1cncc(C(=O)N2C[C@H](Nc3c(C(=O)N4C[C@@H](C)O[C@@H](C)C4)cc(Br)cc3[N+](=O)[O-])CC2C#N)c1` (stereo in doubt) [Example 362]: 50 to 100 nM.

For the compound `CNc1cncc(C(=O)N2CCC[C@@H](Nc3c(C(=O)N4CCOC5(CC5)C4)cc(Br)cc3[N+](=O)[O-])C2)c1` [Example 351], the IC50 was 10 to 50 nM. On the same count and under the same terms, the same measure for `O=C(N[C@H]1CCCC[C@H]1Nc1c(C(=O)N2CCCC2)cc(Br)cc1[N+](=O)[O-])c1cncc2ccccc12` [Example 3, N-((1S,2R)-2-((4-bromo-2-nitro-6-(pyrrolidin-1-carbonyl)phenyl)amino)cyclohexyl) isoquinolin-4-formamide]: below 10 nM. Same read-out and setting: then `CNc1cncc(C(=O)N2C[C@H](Nc3c(C(=O)N4C[C@@H](C)O[C@@H](C)C4)cc(Br)cc3[N+](=O)[O-])C[C@H]2C(=O)Nc2ccc3c(cnn3C)c2Cl)c1` [Example 435], with 50 to 100 nM. As for `CNc1cncc(C(=O)N2CCC[C@@H](Nc3c(C(=O)N4CCCOCC4)cc(Br)cc3[N+](=O)[O-])C2)c1` [Example 305], the IC50 was in the range of 10 to 50 nM. The same measure, in the same setting: then `CNc1cncc(C(=O)N2C[C@H](Nc3c(-c4nnn(C)n4)cc(Br)cc3[N+](=O)[O-])[C@@H](OC)C2)c1` [Example 440, ((3S,4S)-3-((4-bromo-2-(2-methyl-2H-tetrazol-5-yl)-6-nitrophenyl)amino)-4-methoxypyrrolidin-1-yl)(5-(methylamino)pyridin-3-yl)methanone], with 50 to 100 nM. With `O=C(N[C@H]1CCCC[C@H]1Nc1c(C(=O)N2CC(F)(F)C2)cc(Br)cc1[N+](=O)[O-])c1cncc2ccccc12` [Example 1, N-((1S,2R)-2-((4-bromo-2-(3,3-difluoroazetidin-1-carbonyl)-6-nitrophenyl)amino)cyclohexyl) isoquinolin-4-formamide], the IC50 fell in the range of 10 to 50 nM.
